Results: US6174907A, “Benzimidazole compounds containing 1,2,4-triazole ring, and compositions and methods of use containing the same” (Fuji Photo Film Co., Ltd., priority 1995, dated 2001)
Like-named read-outs stand apart in the source and are kept apart here.

Tests used:
[1] = system: mouse peritoneal macrophages; assay: Suppression of foaming of macrophages (cholesterol ester synthesis) in vitro; type: cell-based, mouse (female ICR); conditions: for activity at 5 µM: Mus musculus, Peritoneal macrophage, 16 hours, relative to control as 100%, smaller value = more potent suppression, read-out: Rate of CE synthesis (%)
Description: Activity of the compounds of the present invention for suppressing the foaming of macrophages
(§1) Activity of the compounds of the present invention for suppressing the foaming of macrophages, which triggers arterial sclerosis, was examined by an in vitro experiment using mouse peritoneal macrophages. 15-Week old female ICR mice (Nippon SLC) were subjected to bleeding by cutting off their cervicalis, and Hanks buffer (Nippon Seiyaku) was injected into their peritoneal cavities. After abdominal regions of the mice were massaged, the buffer was recovered immediately, and then the resulting buffer was centrifuged at 1,000 r.p.m. for five minutes to collect peritoneal macrophages. Then, the collected macrophages were suspended in GTI medium (Wako Pure Chemical Industries), and inoculated onto a 24-well microtiter plate. After the macrophages were cultivated at 37° C. under 5% CO2 for two hours, the culture medium was changed with Dulbecco Modified Eagle Medium (MEM, Nippon Seiyaku). The macrophages were further cultivated at 37° C. under 5% CO2 for 16 hours, and then a test compound and liposomes were added to the culture.
1) Test compound: dissolved in DMSO (Wako Pure Chemical Industries),
PC: Phosphatidylcholine (Funakoshi);
PS: Phosphatidylserine (Funakoshi);
DCP: Dicetylphosphate (Funakoshi);
CHOL: Cholesterol (Sigma)
(§2) After cultivation was further continued at 37° C. under 5% CO2 for 16 hours, lipid fraction was extracted with chloroform and methanol. The extracted lipid fraction was dissolved in isopropyl alcohol, and the produced cholesterol ester (CE) was quantified by an enzymatic luminescence method. Yield of the cholesterol ester was calculated as a relative ratio based on yield of the control as 100% where no test compound was added. Cytotoxicity was examined microscopically by observing morphological alteration of cells. In the tables, compound numbers correspond to those of the compounds of present invention described in the examples.

[2] = system: rabbits fed with high cholesterol food; assay: Effect on lipid in blood, GOT and GPT in rabbits fed with high cholesterol food; type: in vivo, NZW rabbits (male); conditions: 100 mg/kg/day/rabbit in feed; for Difference in total cholesterol compared with the control group / Increase of HDL cholesterol / Reduction of LDL cholesterol compared with the control group: seven days, high cholesterol feed; for GOT / GPT: during the experiment
From the text: (§3) Activity of the compounds of the present invention for suppressing the formation of arterial sclerosis lesions (in vivo experiment) By using rabbits fed with high cholesterol food, effect on lipid in blood and activity of the compounds of the present invention for suppressing formation of arterial sclerosis lesions were examined. Hypercholesterolemia condition was created by feeding NZW rabbits (male) weighing about 2 kg with high cholesterol feed (100 g/day/rabbit of OCR-4 [Oriental Yeast]+0.5% cholesterol+0.5% olive oil) for seven days. A group consisting of three rabbits was continuously administered with a compound of the present invention (Compound B16 or Compound B49) for seven days by mixing the compound with the above feed at an amount of 100 mg/kg/day/rabbit. Another group consisting of three rabbits was fed solely with the high cholesterol feed and used as a control group. Blood was collected from parotid veins with one week interval, and total cholesterol, LDL cholesterol, HDL cholesterol, GOT, and GPT were measured.

[3] = system: mouse peritoneal macrophages; assay: Cytotoxicity examined microscopically (morphological alteration of cells); type: cell-based, mouse (female ICR); conditions: 5 μM, observed microscopically
Description: as §1, §2

[4] = system: rabbits fed with high cholesterol food; assay: Suppression of formation of arterial sclerosis lesions (cholesterol deposited on inner vascular walls of aortas); type: in vivo, NZW rabbits (male); conditions: 100 mg/kg/day/rabbit in feed; aortas removed seven weeks after the administration
From the text: Activity of the compounds of the present invention for suppressing the formation of arterial sclerosis lesions (in vivo experiment)
as §3, with “By” for “Activity of the compounds of the present invention for suppressing the formation of arterial sclerosis lesions (in vivo experiment) By”, “group.” for “group. Blood was collected from parotid veins with one week interval, and total cholesterol, LDL cholesterol, HDL cholesterol, GOT, and GPT were measured.”
Aortas were removed seven weeks after the administration, and cholesterol deposited on inner vascular walls was quantified. In the groups administered with Compound B16 or Compound B49, the amount of deposited cholesterol was reduced by 40% and 45% compared with control, respectively.

Compound	activity at 5 µM ([1]; Table 4) [%]	Cytotoxicity ([3]; Table 4)	activity at 5 µM ([1]; Table 3) [%]	Cytotoxicity ([3]; Table 3)	other results
Cc1nnc(SCCCCCSc2nc3ccccc3[nH]2)s1 [Compound B16]	9.3	Not observed	–	–	Difference in total cholesterol compared with the control group [2]: no difference in total cholesterol was observed; Increase of HDL cholesterol [2]: 30%; Reduction of LDL cholesterol compared with the control group [2]: 35%; GOT [2]: No abnormal value was observed; GPT [2]: No abnormal value was observed; Reduction of the amount of deposited cholesterol on inner vascular walls of aortas compared with control [4]: 40%
CCOC(=O)c1ccc2[nH]c(SCCCCCSc3nc4ccccc4[nH]3)nc2c1 [Compound A9, 1-(2'-(5'-ethoxycarbonylbenzimidazolyl)thio)-5-(2"-benzimidazolylthio)pentane]	–	–	28	Not observed	–
CN(C)CCSc1nnc(SCCCCCSc2nc3ccccc3[nH]2)s1 [Compound B20]	24	Not observed	–	–	–
c1ccc2[nH]c(CCCCCSc3nc4ccccc4[nH]3)nc2c1 [Compound A27, 2-(5-(2'-benzimidazolylthio)pentyl)benzimidazole]	–	–	48	Not observed	–
COc1ccc2[nH]c(SCCCCCSc3ccccn3)nc2c1 [Compound B34]	37	Not observed	–	–	–
c1ccc(-c2noc(SCCCCCSc3nc4ccccc4[nH]3)n2)cc1 [Compound B27]	15	Not observed	–	–	–
c1ccc2[nH]c(SCCCCCSC3=NCCCN3)nc2c1 [Compound B54]	24	Not observed	–	–	–
Cc1ccc2[nH]c(SCCOCCSc3nc4ccccc4[nH]3)nc2c1 [Compound A21]	–	–	24	Not observed	–
CCCc1cc(SCCCCCSc2nc3ccccc3[nH]2)n2ncnc2n1 [Compound B61]	12	Not observed	–	–	–
c1cnc(SCCCCCSc2nc3ccccc3[nH]2)nc1 [Compound B49]	11	Not observed	–	–	Difference in total cholesterol compared with the control group [2]: no difference in total cholesterol was observed; Increase of HDL cholesterol [2]: 30%; Reduction of LDL cholesterol compared with the control group [2]: 30%; GOT [2]: No abnormal value was observed; GPT [2]: No abnormal value was observed; Reduction of the amount of deposited cholesterol on inner vascular walls of aortas compared with control [4]: 45%
c1ccc(-c2nc(SCSc3nc4ccccc4[nH]3)[nH]c2-c2ccccc2)cc1 [Control Compound, reference compound]	102	Not observed	–	–	Activity for suppressing the foaming of macrophages (in words) [1]: did not exhibit activity for suppressing the foaming of macrophages
c1ccc2[nH]c(SCCCCCSc3ncc[nH]3)nc2c1 [Compound B1, 1-(2'-benzimidazolylthio)-5-(2"-imidazolylthio)pentane]	41	Not observed	–	–	–
Clc1ccc2[nH]c(SCCCCCSc3nc4ccccc4[nH]3)nc2c1 [Compound A2, 1-(2'-(5'-chlorobenzimidazolyl)thio)-5-(2"-benzimidazolylthio)pentane]	–	–	52	Not observed	–
